In ChEMBL document CHEMBL1201862, “PubChem BioAssay data set” (2004):
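Tested at 5 concentrations; 48 h exposure; 96-well plates; endpoints linearly interpolated, else capped at highest concentration. GI50 is the concentration that inhibits growth by half.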 The source made the active and inactive calls. Cut-off read from the data, not from the text of the source: active = GI50 up to about 1.1 µM and inactive = higher.

How the values were obtained:
Test in all cases: NCI anticancer screen, dose series, 48 h
[1] = tested on: A498
[2] = tested on: A549
[3] = tested on: ACHN
[4] = tested on: CCRF-CEM
[5] = tested on: COLO 205
[6] = tested on: DLD-1
[7] = tested on: DMS-114
[8] = tested on: DMS-273
[9] = tested on: EKVX
[10] = tested on: HCC 2998
[11] = tested on: HCT-116
[12] = tested on: HL-60
[13] = tested on: HOP-18
[14] = tested on: HOP-62
[15] = tested on: HOP-92
[16] = tested on: HT-29
[17] = tested on: IGROV-1
[18] = tested on: K562
[19] = tested on: KM-20L2
[20] = tested on: KM12
[21] = tested on: LOX IMVI
[22] = tested on: LXFL 529
[23] = tested on: M19-MEL
[24] = tested on: MOLT-4
[25] = tested on: NCI-H23
[26] = tested on: NCI-H460
[27] = tested on: NCI-H522
[28] = tested on: OVCAR-3
[29] = tested on: OVCAR-5
[30] = tested on: OVCAR-8
[31] = tested on: RPMI-8226
[32] = tested on: RXF 393
[33] = tested on: SF-268
[34] = tested on: SF-295
[35] = tested on: SF-539
[36] = tested on: SK-MEL-28
[37] = tested on: SK-OV-3
[38] = tested on: SNB-19
[39] = tested on: SNB-75
[40] = tested on: SNB-78
[41] = tested on: SW-620
[42] = tested on: TK-10
[43] = tested on: U-251
[44] = tested on: UACC-257
[45] = tested on: UO-31
[46] = tested on: XF498
[47] = tested on: 786-0
[48] = tested on: HCT-15
[49] = tested on: M14
[50] = tested on: Malme-3M
[51] = tested on: OVCAR-4
[52] = tested on: SK-MEL-2
[53] = tested on: SK-MEL-5
[54] = tested on: SN12C
[55] = tested on: SR
[56] = tested on: UACC-62
[57] = tested on: CAKI-1
[58] = tested on: NCI-H226

For `CC(c1ccccc1)/[N+]([O-])=C/c1ccccc1` (centres undefined), the GI50 [1] was > 100 µM (inactive), the GI50 [2] was > 100 µM (inactive) and the GI50 [3] was > 100 µM (inactive). For the same compound, the GI50 [4] was > 100 µM (inactive), the GI50 [5] was > 100 µM (inactive) and the GI50 [6] was > 100 µM (inactive). The GI50 [7] was > 100 µM (inactive), the GI50 [8] was > 100 µM (inactive) and the GI50 [9] was > 100 µM (inactive). The GI50 [10] was > 100 µM (inactive), the GI50 [11] was > 100 µM (inactive) and the GI50 [12] was > 100 µM (inactive). For the same compound, the GI50 [13] was 34.9 µM (inactive), the GI50 [14] was > 100 µM (inactive) and the GI50 [15] was > 100 µM (inactive). For the same compound, the GI50 [16] was > 100 µM (inactive), the GI50 [17] was > 100 µM (inactive) and the GI50 [18] was > 100 µM (inactive). The GI50 [19] was > 100 µM (inactive), the GI50 [20] was > 100 µM (inactive) and the GI50 [21] was > 100 µM (inactive). The GI50 [22] was > 100 µM (inactive), the GI50 [23] was > 100 µM (inactive) and the GI50 [24] was > 100 µM (inactive). For the same compound, the GI50 [25] was > 100 µM (inactive), the GI50 [26] was > 100 µM (inactive) and the GI50 [27] was > 100 µM (inactive). For the same compound, the GI50 [28] was > 100 µM (inactive), the GI50 [29] was > 100 µM (inactive) and the GI50 [30] was > 100 µM (inactive). The GI50 [31] was > 100 µM (inactive), the GI50 [32] was > 100 µM (inactive) and the GI50 [33] was > 100 µM (inactive). The GI50 [34] was > 100 µM (inactive), the GI50 [35] was > 100 µM (inactive) and the GI50 [36] was > 100 µM (inactive). For the same compound, the GI50 [37] was > 100 µM (inactive), the GI50 [38] was > 100 µM (inactive) and the GI50 [39] was > 100 µM (inactive). For the same compound, the GI50 [40] was > 100 µM (inactive), the GI50 [41] was > 100 µM (inactive) and the GI50 [42] was > 100 µM (inactive). For the same compound, the GI50 [43] was > 100 µM (inactive), the GI50 [44] was > 100 µM (inactive) and the GI50 [45] was > 100 µM (inactive). The GI50 [46] was > 100 µM (inactive).
In the case of `COC(=O)CC[C@]12C[C@]13CC[C@]1(C)C4C(C)C[C@]5(CC(C)C(=O)O5)OC4CC1(C)C3CCC2C(C)(C)O` (some centres undefined), the GI50 [47] is reported as > 100 µM (inactive), the GI50 [1] is reported as > 100 µM (inactive) and the GI50 [2] is reported as > 100 µM (inactive). The GI50 [3] was 88.3 µM (inactive), the GI50 [5] was 74.8 µM (inactive) and the GI50 [6] was 51.8 µM (inactive). The GI50 [7] was 59.7 µM (inactive), the GI50 [8] was 32.7 µM (inactive) and the GI50 [9] was > 100 µM (inactive). The GI50 [10] was 51.5 µM (inactive), the GI50 [11] was 85.7 µM (inactive) and the GI50 [48] was 50.9 µM. The GI50 [12] was 23.3 µM (inactive), the GI50 [13] was > 100 µM (inactive) and the GI50 [14] was 45.6 µM (inactive). The GI50 [15] was 23.7 µM (inactive), the GI50 [16] was > 100 µM (inactive) and the GI50 [17] was 65.6 µM (inactive). For the same compound, the GI50 [18] was 49.9 µM (inactive), the GI50 [19] was > 100 µM (inactive) and the GI50 [20] was 48.3 µM (inactive). For the same compound, the GI50 [21] was 32.5 µM (inactive), the GI50 [22] was 55.2 µM (inactive) and the GI50 [49] was > 100 µM (inactive). The GI50 [23] was 48 µM (inactive), the GI50 [50] was > 100 µM (inactive) and the GI50 [25] was 97.3 µM (inactive). For the same compound, the GI50 [26] was 68.7 µM (inactive), the GI50 [27] was 62.1 µM (inactive) and the GI50 [28] was 76 µM (inactive). The GI50 [51] was 95.9 µM (inactive), the GI50 [29] was > 100 µM (inactive) and the GI50 [30] was 41.7 µM (inactive). For the same compound, the GI50 [31] was 25.4 µM (inactive), the GI50 [32] was 46.8 µM (inactive) and the GI50 [33] was 81.1 µM (inactive). For the same compound, the GI50 [34] was > 100 µM (inactive), the GI50 [35] was 50.6 µM (inactive) and the GI50 [36] was 84.9 µM (inactive). For the same compound, the GI50 [52] was 26.7 µM (inactive), the GI50 [53] was 35.6 µM (inactive) and the GI50 [37] was > 100 µM (inactive). For the same compound, the GI50 [54] was 61.5 µM (inactive), the GI50 [38] was 51.2 µM (inactive) and the GI50 [39] was 75 µM (inactive). For the same compound, the GI50 [40] was 89.9 µM (inactive), the GI50 [55] was 42.2 µM (inactive) and the GI50 [41] was 56 µM (inactive). The GI50 [42] was > 100 µM (inactive), the GI50 [43] was 62.2 µM (inactive) and the GI50 [44] was 67.1 µM (inactive). The GI50 [56] was > 10 µM (inactive), the GI50 [45] was 59.2 µM (inactive) and the GI50 [46] was 58.6 µM (inactive).
With `O=C(CSc1nnc(-c2ccc(/N=C\c3ccc(Cl)cc3)cc2)o1)Nc1ccc(Cl)cc1Cl` the GI50 [47] was 19.5 µM (inactive), the GI50 [1] was > 100 µM (inactive) and the GI50 [2] was > 100 µM (inactive). The GI50 [3] was 45.4 µM (inactive), the GI50 [57] was > 100 µM (inactive) and the GI50 [4] was 29.3 µM (inactive). The GI50 [5] was 30.7 µM (inactive), the GI50 [6] was 27.3 µM (inactive) and the GI50 [8] was 34.3 µM (inactive). The GI50 [9] was 34.1 µM (inactive), the GI50 [10] was > 100 µM (inactive) and the GI50 [11] was 22 µM (inactive). For the same compound, the GI50 [48] was 23.3 µM, the GI50 [12] was 33.9 µM (inactive) and the GI50 [13] was 11.6 µM (inactive). For the same compound, the GI50 [14] was 30.5 µM (inactive), the GI50 [15] was 22.3 µM (inactive) and the GI50 [16] was 25.8 µM (inactive). The GI50 [17] was 32.8 µM (inactive), the GI50 [18] was 38 µM (inactive) and the GI50 [19] was 37.2 µM (inactive). For the same compound, the GI50 [20] was 28.6 µM (inactive), the GI50 [22] was 22.4 µM (inactive) and the GI50 [49] was 16.4 µM (inactive). For the same compound, the GI50 [23] was 31.7 µM (inactive), the GI50 [24] was 24.3 µM (inactive) and the GI50 [50] was 21.5 µM (inactive). The GI50 [58] was 19.7 µM (inactive), the GI50 [25] was 25.3 µM (inactive) and the GI50 [26] was > 100 µM (inactive). For the same compound, the GI50 [27] was 27 µM (inactive), the GI50 [51] was 30.3 µM (inactive) and the GI50 [29] was 94.4 µM (inactive). The GI50 [30] was 28.5 µM (inactive), the GI50 [31] was 32.4 µM (inactive) and the GI50 [32] was 68.7 µM (inactive). For the same compound, the GI50 [33] was 25.2 µM (inactive), the GI50 [34] was 27.2 µM (inactive) and the GI50 [35] was 22.2 µM (inactive). For the same compound, the GI50 [36] was 28 µM (inactive), the GI50 [52] was 25.2 µM (inactive) and the GI50 [53] was 33.3 µM (inactive). The GI50 [37] was 27.5 µM (inactive), the GI50 [54] was 24 µM (inactive) and the GI50 [38] was 31 µM (inactive). The GI50 [39] was 22.7 µM (inactive), the GI50 [40] was > 100 µM (inactive) and the GI50 [41] was 40.2 µM (inactive). For the same compound, the GI50 [42] was > 100 µM (inactive), the GI50 [43] was 25.2 µM (inactive) and the GI50 [44] was 25 µM (inactive). The GI50 [56] was 28.7 µM (inactive), the GI50 [45] was 33 µM (inactive) and the GI50 [46] was 17.7 µM (inactive).
